{
  "source": "ChEMBL document CHEMBL1201862",
  "about": "“PubChem BioAssay data set” (2004)",
  "key": {"[1]": {"biological_target": "T1, RNA-binding protein pos-1 (Caenorhabditis elegans, UniProt G5EF15)", "T1 sequence (G5EF15 whole entry)": "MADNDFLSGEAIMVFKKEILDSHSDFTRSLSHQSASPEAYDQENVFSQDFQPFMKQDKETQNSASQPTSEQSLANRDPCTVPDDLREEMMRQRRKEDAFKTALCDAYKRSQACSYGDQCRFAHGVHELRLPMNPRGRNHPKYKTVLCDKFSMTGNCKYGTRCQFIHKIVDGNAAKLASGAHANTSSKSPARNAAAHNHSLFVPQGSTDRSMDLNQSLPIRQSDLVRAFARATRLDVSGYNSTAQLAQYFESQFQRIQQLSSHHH", "assay": "disruptors of C. elegans POS-1 RNA interaction – biochemical, fluorescence polarization, dose response (AID 1964);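 further: purified POS-1 fused to maltose binding protein made in E. coli; potency of compounds blocking POS-1 binding to fluorescent RNA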"}, "[2]": {"biological_target": "T2, Zinc finger protein mex-5 (Caenorhabditis elegans, UniProt Q9XUB2)", "T2 sequence (Q9XUB2 whole entry)": "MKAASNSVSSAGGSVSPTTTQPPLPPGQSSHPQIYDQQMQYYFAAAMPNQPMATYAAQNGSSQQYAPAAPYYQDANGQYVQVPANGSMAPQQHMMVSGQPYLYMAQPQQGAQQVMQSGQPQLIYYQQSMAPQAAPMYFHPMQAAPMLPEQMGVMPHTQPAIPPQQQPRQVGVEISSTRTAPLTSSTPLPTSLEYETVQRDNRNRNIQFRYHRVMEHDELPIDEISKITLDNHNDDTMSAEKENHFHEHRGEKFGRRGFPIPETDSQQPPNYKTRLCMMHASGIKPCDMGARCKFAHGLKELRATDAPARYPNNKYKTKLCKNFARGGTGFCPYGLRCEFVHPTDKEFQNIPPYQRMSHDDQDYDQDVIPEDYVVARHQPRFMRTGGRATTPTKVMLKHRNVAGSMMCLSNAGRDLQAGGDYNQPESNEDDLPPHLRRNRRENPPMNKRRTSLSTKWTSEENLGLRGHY", "assay": "potency of MEX-5 RNA-binding blockers – biochemical, C. elegans, fluorescence polarization, dose response (AID 1960)"}, "[3]": {"biological_target": "26S proteasome non-ATPase regulatory subunit 14 (Homo sapiens, UniProt O00487)", "sequence (O00487 whole entry)": "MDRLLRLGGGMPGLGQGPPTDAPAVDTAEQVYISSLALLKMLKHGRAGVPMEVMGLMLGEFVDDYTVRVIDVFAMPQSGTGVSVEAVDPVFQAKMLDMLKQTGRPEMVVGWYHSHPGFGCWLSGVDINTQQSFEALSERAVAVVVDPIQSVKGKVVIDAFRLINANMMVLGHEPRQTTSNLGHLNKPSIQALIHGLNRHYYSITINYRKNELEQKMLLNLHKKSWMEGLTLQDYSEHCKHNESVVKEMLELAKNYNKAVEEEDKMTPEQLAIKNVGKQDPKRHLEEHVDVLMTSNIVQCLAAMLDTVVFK", "assay": "inhibition of proteasome subunit RPN11 – biochemical, fluorescence polarization, uHTS hits, confirmation (AID 602368)", "assay_type": "functional"}, "[4]": {"biological_target": "72 kDa type IV collagenase (Homo sapiens, UniProt P08253)", "sequence (P08253 whole entry)": "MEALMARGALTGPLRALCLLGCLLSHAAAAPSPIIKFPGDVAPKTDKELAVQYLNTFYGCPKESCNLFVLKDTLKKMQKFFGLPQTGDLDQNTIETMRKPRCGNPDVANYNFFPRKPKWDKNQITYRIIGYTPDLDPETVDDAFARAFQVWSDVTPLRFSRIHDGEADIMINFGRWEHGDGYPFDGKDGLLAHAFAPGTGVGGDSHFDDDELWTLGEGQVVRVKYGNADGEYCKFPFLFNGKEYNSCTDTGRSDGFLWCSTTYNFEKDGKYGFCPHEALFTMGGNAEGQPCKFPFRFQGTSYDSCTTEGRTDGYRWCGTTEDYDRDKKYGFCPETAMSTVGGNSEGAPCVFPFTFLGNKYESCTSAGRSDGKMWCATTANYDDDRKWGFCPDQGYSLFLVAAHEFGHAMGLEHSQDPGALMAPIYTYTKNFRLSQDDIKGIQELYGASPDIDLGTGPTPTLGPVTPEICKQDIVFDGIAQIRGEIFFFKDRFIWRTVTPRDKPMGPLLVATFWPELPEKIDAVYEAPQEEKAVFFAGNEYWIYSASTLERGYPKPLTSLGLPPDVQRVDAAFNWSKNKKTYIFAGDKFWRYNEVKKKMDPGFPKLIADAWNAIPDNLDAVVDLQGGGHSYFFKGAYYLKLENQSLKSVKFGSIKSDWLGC", "assay": "Dose Response validation of uHTS RPN11 inhibitor hits using a MMP-2 Fluorescence assay.", "assay_type": "functional"}, "Prothrombin": {"biological_target": "Prothrombin (Bos taurus, UniProt P00735)", "assay": "thrombin protease inhibitors – biochemical, fluorescence polarization, uHTS hits, dose response (AID 602369)", "assay_type": "functional"}, "BJ [5]": {"test_system": "BJ", "assay": "BJ-TERT fibroblast viability loss – cell-based, RAS-independent, luminescence, dose response (AID 1933)", "assay_type": "functional", "details": "Homo sapiens"}, "BJ [6]": {"test_system": "BJ", "assay": "cells", "assay_type": "functional, cell-based", "details": "Homo sapiens"}, "BJ [7]": {"test_system": "BJ", "assay": "BJ-TERT-LT-ST fibroblast viability loss – cell-based, RAS-independent, luminescence, dose response (AID 1935);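 further: BJ fibroblasts immortalized with TERT plus LT and ST oncogenes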", "assay_type": "functional", "details": "Homo sapiens"}, "[8]": {"assay": "DRD fibroblast viability loss – cell-based, non-viral oncogenic, luminescence, dose response (AID 1934)", "assay_type": "functional", "details": "Homo sapiens"}, "INS1": {"test_system": "INS1", "assay": "INS-1E survival protection against cytokine death – cell-based, luminescence, retest, dose response (AID 449756);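 further: cell death triggered by IL-1 beta plus TNF-alpha plus IFN-gamma mixture; protective hits raise ATP signal compared with cytokine alone wells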", "assay_type": "functional", "details": "Rattus norvegicus"}, "Galanin receptor type 3": {"biological_target": "T3, Galanin receptor type 3 (Homo sapiens, UniProt O60755)", "T3 sequence (O60755 whole entry)": "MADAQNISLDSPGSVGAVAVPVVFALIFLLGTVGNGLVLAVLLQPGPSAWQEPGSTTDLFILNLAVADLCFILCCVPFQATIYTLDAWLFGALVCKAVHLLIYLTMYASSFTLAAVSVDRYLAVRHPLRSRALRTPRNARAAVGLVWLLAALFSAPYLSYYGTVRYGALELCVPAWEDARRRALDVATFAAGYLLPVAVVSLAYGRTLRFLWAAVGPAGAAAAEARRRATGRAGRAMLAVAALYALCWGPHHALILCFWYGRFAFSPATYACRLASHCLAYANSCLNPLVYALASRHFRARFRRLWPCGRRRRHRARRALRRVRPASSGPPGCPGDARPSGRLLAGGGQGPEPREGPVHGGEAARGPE", "assay": "Fluorescence-based cell-based primary high throughput dose response assay to identify antagonists of the Galanin Receptor 3 (GalR3).", "assay_type": "functional"}, "cells": {"assay": "cells", "assay_type": "functional, cell-based", "details": "HEK-CNG"}, "[9]": {"assay": "microbe, parasite or virus in culture", "assay_type": "functional", "details": "Mycobacterium tuberculosis"}, "[10]": {"biological_target": "T4, Endoribonuclease toxin MazF (Escherichia coli K-12, UniProt P0AE70)", "T4 sequence (P0AE70 whole entry)": "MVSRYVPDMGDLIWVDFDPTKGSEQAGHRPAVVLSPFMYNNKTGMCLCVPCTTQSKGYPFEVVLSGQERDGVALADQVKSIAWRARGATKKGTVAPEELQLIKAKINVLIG", "assay": "activation of MazEF endoribonuclease cleavage – biochemical, fluorescence, single-stranded RNA substrate, uHTS hits, dose response (AID 588481)", "assay_type": "functional"}, "[11]": {"biological_target": "T4, Endoribonuclease toxin MazF", "assay": "substrate-only fluorescence increase artefacts – biochemical, single-stranded RNase substrate, counter-screen for MazEF activator project, dose response (AID 588502)", "assay_type": "functional"}, "[12]": {"biological_target": "T5, Sentrin-specific protease 1 (Homo sapiens, UniProt Q9P0U3)", "T5 sequence (Q9P0U3 whole entry)": "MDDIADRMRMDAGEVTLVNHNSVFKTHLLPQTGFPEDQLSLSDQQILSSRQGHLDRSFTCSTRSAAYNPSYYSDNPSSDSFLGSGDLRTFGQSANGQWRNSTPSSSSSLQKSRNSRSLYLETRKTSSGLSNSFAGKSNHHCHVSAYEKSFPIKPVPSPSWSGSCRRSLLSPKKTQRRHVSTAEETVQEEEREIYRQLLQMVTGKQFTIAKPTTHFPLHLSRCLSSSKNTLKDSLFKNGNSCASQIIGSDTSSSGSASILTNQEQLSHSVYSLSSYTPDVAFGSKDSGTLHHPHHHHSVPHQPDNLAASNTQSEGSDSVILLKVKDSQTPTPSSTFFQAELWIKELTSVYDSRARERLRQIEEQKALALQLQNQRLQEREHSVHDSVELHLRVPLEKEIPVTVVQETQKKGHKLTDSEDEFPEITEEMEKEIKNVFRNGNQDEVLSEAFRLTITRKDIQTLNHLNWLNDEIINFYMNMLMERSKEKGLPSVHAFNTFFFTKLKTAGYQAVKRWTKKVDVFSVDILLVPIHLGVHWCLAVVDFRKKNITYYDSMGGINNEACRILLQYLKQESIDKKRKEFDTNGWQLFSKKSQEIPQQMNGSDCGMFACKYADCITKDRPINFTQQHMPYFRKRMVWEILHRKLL", "assay": "SENP1 catalytic domain blockers, concentration series – biochemical, kinetic FRET, dose response (AID 651697)", "assay_type": "functional", "details": "read-out: IC50_Mean"}, "[13]": {"biological_target": "T5, Sentrin-specific protease 1", "assay": "Dose response confirmation of small molecule inhibitors of the catalytic domain of the SUMO protease, SENP1 in a FRET assay.", "assay_type": "functional", "details": "read-out: IC50_Mean"}, "[14]": {"biological_target": "T6, Small ubiquitin-related modifier 1 (Homo sapiens, UniProt P63165)", "T6 sequence (P63165 whole entry)": "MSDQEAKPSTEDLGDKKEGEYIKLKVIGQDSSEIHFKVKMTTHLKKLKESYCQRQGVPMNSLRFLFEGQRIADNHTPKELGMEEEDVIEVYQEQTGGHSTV", "assay": "SUMO1 protein interaction blockers, potency – biochemical, fluorescence polarization, uHTS hits, dose response (AID 624382)", "assay_type": "functional", "details": "read-out: IC50_Mean"}, "[15]": {"biological_target": "T6, Small ubiquitin-related modifier 1", "assay": "SUMO1 protein-protein binding blockers, potency – biochemical, FRET, dose response (AID 624383)", "assay_type": "functional", "details": "read-out: IC50_Mean"}},
  "note": "Calls of active or inactive are those of the source.",
  "data": [
    {"smiles": "Cc1cc(/C=C(/C#N)c2nc3ccccc3[nH]2)c(C)n1-c1ccccc1C(=O)O", "values": [
      {"measurement": "EC50", "setting": "[1]", "result": "> 300 µM (not active)"},
      {"measurement": "EC50", "setting": "[2]", "result": "> 300 µM (not active)"},
      {"measurement": "IC50", "setting": "[3]", "result": "26.2 µM (active)"},
      {"measurement": "IC50", "setting": "[4]", "result": "> 100 µM (inactive)"},
      {"measurement": "IC50", "setting": "Prothrombin", "result": "25.5 µM (active)"}
    ]},
    {"smiles": "CC(C)(C)c1cc([N+](=O)[O-])cc(C(C)(C)C)c1O", "values": [
      {"measurement": "EC50", "setting": "BJ [5]", "result": "> 150 µM (not active)"},
      {"measurement": "EC50", "setting": "BJ [6]", "result": "> 150 µM (inconclusive)"},
      {"measurement": "EC50", "setting": "BJ [7]", "result": "> 75 µM (inconclusive)"},
      {"measurement": "EC50", "setting": "[8]", "result": "22 µM (active)"},
      {"measurement": "AC50", "setting": "INS1", "result": "4.45 µM (active)"},
      {"measurement": "IC50", "setting": "Galanin receptor type 3", "result": "2 µM (active)"},
      {"measurement": "EC50", "setting": "cells", "result": "> 29.9 µM (inactive)"}
    ]},
    {"smiles": "c1cc(Nc2cccc3nccnc23)c2nccnc2c1", "values": [
      {"measurement": "CC50", "setting": "[9]", "result": "31.7 µM (active)"},
      {"measurement": "EC50", "setting": "[10]", "result": "> 99 µM (inactive)"},
      {"measurement": "EC50", "setting": "[11]", "result": "> 99 µM (inactive)"},
      {"measurement": "IC50", "setting": "[12]", "result": "25.6 µM (inactive)"},
      {"measurement": "IC50", "setting": "[13]", "result": "24.5 µM (inactive)"}
    ]},
    {"smiles": "O=C1C=C(c2cccc(Cl)c2O)C[C@@H](c2ccc(Cl)cc2)C1", "values": [
      {"measurement": "IC50", "setting": "[12]", "result": "2.66 µM (active)"},
      {"measurement": "IC50", "setting": "[13]", "result": "1.15 µM (active)"}
    ]},
    {"smiles": "CCOC(=O)C1=C(COc2ccccc2)NC(=O)NC1c1ccc(Cl)cc1", "note": "(stereo unspecified)", "values": [
      {"measurement": "IC50", "setting": "[14]", "result": "> 66.6 µM (inactive)"},
      {"measurement": "IC50", "setting": "[15]", "result": "15.7 µM (active)"}
    ]}
  ]
}
